The text below walks through data of PubChem BioAssay (NCI).

Holding throughout (assay): NCI tumour cell line growth inhibition, 48 h
Assay [1] deals with A549 NSCLC.
Assay [2] has as its system IGROV1 ovarian.
Assay [3] deals with UACC-257 melanoma.
Assay [4] has as its system RPMI-8226 leukemia.
Assay [5] concerns NCI-H226 lung.
In assay [6] the test system is MOLT-4 leukemia.
Assay [7] has as its system PC-3 prostate.
The subject of assay [8] is MDA-N.
Assay [9] has as its system HOP-92 NSCLC.
The subject of assay [10] is ACHN renal.
The subject of assay [11] is MDA-MB-435.
The subject of assay [12] is MCF7 breast.

SMILES strings stand for the structures.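 Method: 48-hour compound exposure of cells in 96-well plates, five concentrations, linear interpolation of endpoints. The concentration for full growth arrest is given as TGI.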 Where only a bound is given, the exact number is not on record here.

Consider `COc1ccc(/C=N/Nc2nnc3c(n2)c2ccccc2c2nn(-c4ccccc4Cl)nc23)cc1`, for which the TGI in assay [1], in assay [2], in [3], in assay [4], in assay [5] and in [6] was more than 100 µM throughout. For the same compound, the TGI in assay [7], in assay [8], in [9], in assay [10] and in assay [11] was more than 100 µM throughout.
`CSc1nc[nH]c1C(N)=S`: the TGI in assay [1], in assay [12], in assay [2], in assay [3], in assay [4] and in [5] was more than 100 µM each time. The TGI in assay [6], in assay [7], in [8], in [10] and in [11] was more than 100 µM in each case.
As for `C[n+]1c2ccccc2c(C(=O)Nc2ccc(S(=O)(=O)Nc3ncccn3)cc2)c2ccccc21`, the TGI in assay [1], in [12], in assay [2], in [3], in assay [4] and in assay [5] was more than 100 µM throughout. Also, the TGI in assay [6], in [7], in [8], in assay [10] and in [11] was more than 100 µM throughout.
For the compound `S=c1[nH]nc(CCCCCCCCc2n[nH]c(=S)o2)o1`, the TGI in assay [1], in [12], in assay [2], in assay [3], in assay [5] and in assay [6] was more than 100 µM each time. Also, the TGI in [7], in [8], in [10] and in assay [11] was more than 100 µM each time.
With `CC(=O)N1c2cc(N=NN(C)C)ccc2NC(=O)CC1C` (centres undefined), the TGI in assay [1], in assay [12], in assay [2], in [3], in [4] and in assay [5] was more than 100 µM in each case. Besides, the TGI in [6], in assay [7], in assay [8], in assay [10] and in [11] was more than 100 µM each time.
Take `COc1ccc2c(c1)CC[C@@H]1C2CC[C@]2(C)C(=C=CP(=O)(O)O)CCC12` (some centres undefined): the TGI in assay [1], in assay [12], in assay [2], in [3], in assay [4] and in assay [5] was more than 100 µM in each case. Besides, the TGI in [7], in assay [8], in assay [9], in [10] and in assay [11] was more than 100 µM each time.
For `C=CCN1C(=O)CC(=O)N(NC2=NNC3(C(=O)N2)c2ccccc2-c2ccccc23)C1=S`, the TGI was more than 100 µM in assay [1]; more than 100 µM in [12]; more than 100 µM in assay [2]; more than 100 µM in assay [3]; 82.5 µM in assay [5]; more than 100 µM in [7]. Further, the TGI in assay [8] was more than 100 µM; in [9] it was 61.8 µM; in [10], more than 100 µM; in [11], more than 100 µM.
In the case of `CC(=O)NN(c1ccccc1)C1CCN(c2ccccc2)N1C(C)=O` (centres undefined), the TGI in assay [1], in assay [12], in assay [2], in assay [3], in [4] and in assay [5] was more than 10 µM in each case. In addition, the TGI in [6], in assay [7], in assay [8], in assay [10] and in [11] was more than 10 µM in each case.
Take `COc1cccc(CCCNC(=O)Cc2ccccc2CO)c1`: the TGI in assay [1], in assay [12], in [2], in assay [3], in assay [5] and in [6] was more than 100 µM each time. Further, the TGI in assay [7], in assay [8], in assay [9], in assay [10] and in [11] was more than 100 µM in each case.
As for `CN(C)C(=O)Oc1ccc(C(=S)Nc2ccccc2)cc1`, the TGI in assay [1] is more than 100 µM; in assay [12], more than 100 µM; in [2] it was more than 100 µM; in assay [3], more than 100 µM; in [4] it was more than 100 µM; in assay [6] it was 64 µM. The TGI in assay [7], in [8], in assay [10] and in [11] was more than 100 µM each time.
With `Cc1cc2c(cc1Cl)Sc1n[nH]c(=O)n1S2(=O)=O`, the TGI in [1], in [12], in assay [2], in assay [3], in assay [5] and in assay [6] was more than 100 µM throughout. The TGI in [7], in assay [8], in assay [9], in assay [10] and in assay [11] was more than 100 µM in each case.
On to `Cc1cc(C)n2c(nc3ccccc32)c1C#N`, for which the TGI in assay [1], in [12], in assay [2], in [3], in [5] and in [6] was more than 100 µM each time. The TGI in assay [7] is more than 100 µM; in assay [8], more than 100 µM; in assay [9], 79.8 µM; in assay [10], more than 100 µM; in assay [11], more than 100 µM.
